Reference: patent US8501732B2, “Aminomethyl quinolone compounds” (Hoffmann-La Roche Inc., priority 2011, dated 2013)

What was measured:
[1] = system: phospho(Ser63)-c-jun in HK-2 cells; test: Cell-Based Assay for JNK Inhibitors (in-cell ELISA, phospho(Ser63)-c-jun after TNFα); settings: HK-2 cells (human proximal tubule cells), 60 minutes compound, then 10 ng/mL TNFα for 30 minutes
Experimental: Cell-Based Assay for JNK Inhibitors
The cell-based assay employed the in-cell ELISA method to determine the ability of compounds to prevent the generation of phospho(Ser63)-c-jun in HK-2 cells (human proximal tubule cells) in response to stimulation with tumor necrosis factor α (TNFα). In brief, for quantification of phospho(Ser63)-c-jun, the cells (in 96-well format) were fixed and permeablized then incubated sequentially with a rabbit anti-phospho-c-jun First Antibody specific for the presence of the phospho-Ser63 epitope and a donkey anti-rabbit IgG Second Antibody linked to horseradish peroxidase (HRP) for colorimetric quantitation of binding. […] Blank wells received no TNFα stimulation or compound. Additional Control wells received TNFα stimulation, but no compound.
Stock cultures of HK-2 cells (ATCC, Manassas, Va.) were grown under a 5% CO2/[…] atmosphere at 37 degrees C. in Keratinocyte-SFM medium (KSFM, Invitrogen, Grand Island, N.Y.) containing 5 μg/L epidermal growth factor and 5 mg/L bovine pituitary extract (both supplied with the medium), additionally supplemented with 10% (v/v) fetal calf serum (FCS; Invitrogen, Grand Island, N.Y.) and 1% (v/v) antibiotic-antimycotic (ABAM: Sigma, St. Louis, Mo.). For assays, cells were seeded in collagen coated 96-well polystyrene plates (BD Biosciences, Franklin Lakes, N.J.) at a density of 40,000 cells/well and cultured for 24 h in the same medium (100 μL/well) followed by a further 16-24 h in 100 μL of similar medium, but without FCS. […] Plates were then allowed to stand at room temperature for 20 minutes before being washed with 200 μL/well of PBS. (Further steps were performed immediately or the plates were stored at 4 degrees C. and the assay completed the next day.) To each well was added 100 μL 1% (v/v) TritonX-100 (Sigma, St. Louis, Mo.) in PBS followed by 20 minutes standing at room temperature, washing with 200 μL/well PBS, the addition of 100 μL/well of Quenching buffer (1% (v/v) hydrogen peroxide (Sigma, St. Louis, Mo.) and 0.1% (w/v) sodium azide (Fisher Scientific, Fair Lawn, N.J.)) in PBS and a further 20 minutes at room temperature. Plates were then washed twice with 200 μL/well of 0.1% (v/v) Tween-20 (Teknova, Hollister, Calif.) in PBS before addition of 200 μL/well of 2% BSA/0.1% Tween-20 in PBS and a further 1 hour at room temperature. […] After a further one hour, rabbit anti-phospho-c-jun-Ser63 is added directly to the solution in the Blank wells resulting in 1:250 dilution of this antibody. Plates were then placed on a slowly rotating platform at 4 degrees C. overnight. Wells were then washed thrice with 200 μL/well PBS/0.1% Tween-20. After addition of the third wash, the plates were placed on a slowly rotating platform for 15 minutes at room temperature. The final PBS/Tween20 wash was then replaced with 100 μL/well of donkey anti-rabbit HRP-labeled Second Antibody (Jackson ImmunoResearch Laboratory, West Grove, Pa.) diluted 1:10,000 in Antibody Dilution Buffer and the plates placed on a slowly rotating platform for 1 hour at room temperature. Wells were then washed four times with 200 μL/well PBS/0.1% Tween-20, including slow rotation for 30 minutes for the third wash and 10 minutes for the final wash. The wells were then washed once with 200 μL PBS without Tween-20. […] Absorbance was determined at a 450 nm wavelength using a spectrophotometer (Molecular Devices SpectraMax 250).

JNK1 = JNK1 (Homo sapiens (Human), UniProt P45983); test: In Vitro JNK1 Assay (TR-FRET, phosphorylation of GST-c-Jun); type: biochemical; settings: 0.2 nM active JNK1 kinase, 26.7 nM GST-c-Jun, 2 μM ATP, 30 min at room temperature
How it was run: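 GST-c-Jun (residues 1-79) phosphorylation by JNK1 in 50 mM HEPES pH 7.0, MgCl2, 1 mM DTT, 0.1 mM Na3VO4, 0.2 mg/mL BSA, 30 min at room temperature. Stopped with EDTA plus anti-phospho-c-Jun antibody and read by TR-FRET 1 hr later. IC50 from percent inhibition over 10 serial dilutions.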

JNK1, sequence (P45983 whole entry, the tested form may be a part): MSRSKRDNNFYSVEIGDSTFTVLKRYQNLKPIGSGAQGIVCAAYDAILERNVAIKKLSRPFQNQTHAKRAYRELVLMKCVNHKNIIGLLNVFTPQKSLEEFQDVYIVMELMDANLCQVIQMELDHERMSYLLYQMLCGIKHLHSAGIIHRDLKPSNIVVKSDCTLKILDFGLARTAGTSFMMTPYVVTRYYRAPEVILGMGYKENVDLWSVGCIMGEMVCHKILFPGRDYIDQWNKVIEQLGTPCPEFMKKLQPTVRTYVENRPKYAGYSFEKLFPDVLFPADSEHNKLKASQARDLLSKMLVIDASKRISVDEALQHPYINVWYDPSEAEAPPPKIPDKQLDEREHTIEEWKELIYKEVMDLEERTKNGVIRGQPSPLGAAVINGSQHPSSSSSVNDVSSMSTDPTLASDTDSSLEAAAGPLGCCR

Structure (SMILES) | EC50 [1] [nM] | IC50 (JNK1) [nM]
Cn1cc(C(=O)NCc2cn(-c3ccccc3)c3cc(Cl)ccc3c2=O)cn1 [Example I-30, 1-Methyl-1H-pyrazole-4-carboxylic acid (7-chloro-4-oxo-1-phenyl-1,4-di hydro-quinolin-3-ylmethyl)-amide] | 42000 | 18
O=C(NCc1cn(-c2ccccc2)c2cc(Cl)ccc2c1=O)c1ccnc(N2CCOCC2)c1 [Example I-31, N-(7-Chloro-4-oxo-1-phenyl-1,4-dihydro-quinolin-3-ylmethyl)-2-morpholin-4-yl-isonicotinamide] | 30000 | 31
O=C(NCc1cn(-c2ccccc2)c2cc(Cl)ccc2c1=O)c1ccnc(N2CCCC2)c1 [Example I-32, N-(7-Chloro-4-oxo-1-phenyl-1,4-dihydro-quinolin-3-ylmethyl)-2-pyrrolidin-1-yl-isonicotinamide] | 29000 | 38
O=C(NCc1cn(-c2ccccc2)c2cc(Cl)ccc2c1=O)c1ccc2nc[nH]c2c1 [Example I-33, 3H-Benzoimidazole-5-carboxylic acid (7-chloro-4-oxo-1-phenyl-1,4-dihydro-quinolin-3-ylmethyl)-amide] | 100000 | 41
O=C(NCc1cn(-c2ccccc2)c2cc(Cl)ccc2c1=O)c1ccn(Cc2ccc(Cl)cc2)c(=O)c1 [Example I-34, 1-(4-Chloro-benzyl)-2-oxo-1,2-dihydro-pyridine-4-carboxylic acid (7-chloro-4-oxo-1-phenyl-1,4-dihydro-quinolin-3-ylmethyl)-amide] | 12000 | 44
COc1ccc(C(=O)NCc2cn(-c3ccccc3)c3cc(Cl)ccc3c2=O)cn1 [Example I-35, N-(7-Chloro-4-oxo-1-phenyl-1,4-dihydro-quinolin-3-ylmethyl)-6-methoxy-nicotinamide] | 100000 | 54
NS(=O)(=O)c1ccc(C(=O)NCc2cn(-c3ccccc3)c3cc(Cl)ccc3c2=O)cc1 [Example I-36, N-(7-Chloro-4-oxo-1-phenyl-1,4-dihydro-quinolin-3-ylmethyl)-4-sulfamoyl-benzamide] | 100000 | 55
O=C(NCc1cn(-c2ccccc2)c2cc(Cl)ccc2c1=O)c1cnn(-c2ccccc2)c1 [Example I-37, 1-Phenyl-1H-pyrazole-4-carboxylic acid (7-chloro-4-oxo-1-phenyl-1,4-dihydro-quinolin-3-ylmethyl)-amide] | 25000 | 72
COc1cccc(Cn2ccc(C(=O)NCc3cn(-c4ccccc4)c4cc(Cl)ccc4c3=O)cc2=O)c1 [Example I-38, 1-(3-Methoxy-benzyl)-2-oxo-1,2-dihydro-pyridine-4-carboxylic acid (7-chloro-4-oxo-1-phenyl-1,4-dihydro-quinolin-3-ylmethyl)-amide] | 16000 | 72
O=C(NCc1cn(-c2ccccc2)c2cc(Cl)ccc2c1=O)c1ccn(Cc2ccccc2Cl)c(=O)c1 [Example I-39, 1-(2-Chloro-benzyl)-2-oxo-1,2-dihydro-pyridine-4-carboxylic acid (7-chloro-4-oxo-1-phenyl-1,4-dihydro-quinolin-3-ylmethyl)-amide] | 10000 | 76
O=C(NCc1cn(-c2ccccc2)c2cc(Cl)ccc2c1=O)c1ccc(N2CCOCC2)nc1 [Example I-40, N-(7-Chloro-4-oxo-1-phenyl-1,4-dihydro-quinolin-3-ylmethyl)-6-morpholin-4-yl-nicotinamide] | 100000 | 84
CN(C)c1cc(C(=O)NCc2cn(-c3ccccc3)c3cc(Cl)ccc3c2=O)ccn1 [Example I-41, N-(7-Chloro-4-oxo-1-phenyl-1,4-dihydro-quinolin-3-ylmethyl)-2-dimethyl amino-isonicotinamide] | 28000 | 88
O=C(NCc1cn(-c2ccccc2)c2cc(Cl)ccc2c1=O)c1ccc2scnc2c1 [Example I-42, Benzothiazole-5-carboxylic acid (7-chloro-4-oxo-1-phenyl-1,4-dihydro-quinolin-3-ylmethyl)-amide] | 25000 | 89
O=C(NCc1cn(-c2ccccc2)c2cc(Cl)ccc2c1=O)c1ccc(-c2ncn[nH]2)cc1 [Example I-43, N-(7-Chloro-4-oxo-1-phenyl-1,4-dihydro-quinolin-3-ylmethyl)-4-(2H-[1,2,4]triazol-3-yl)-benzamide] | 100000 | 100
COc1ccc(C(=O)NCc2cn(-c3ccccc3)c3cc(Cl)ccc3c2=O)cc1OC [Example I-57, N-(7-Chloro-4-oxo-1-phenyl-1,4-dihydro-quinolin-3-ylmethyl)-3,4-dimethoxy-benzamide] | 26000 | 80
CC(C)(C)OC(=O)N1CC2CC1CN2c1ccc(C(=O)NCc2cn(-c3ccccc3)c3cc(Cl)ccc3c2=O)cn1 (centres unmarked) [Example I-62, 5-{5-[(7-Chloro-4-oxo-1-phenyl-1,4-dihydro-quinolin-3-ylmethyl)-carbamoyl]-pyridin-2-yl}-2,5-diaza-bicyclo[2.2.1]heptane-2-carboxylic acid tert-butyl ester] | 13000 | 11
O=C(NCc1cn(-c2ccccc2)c2cc(Cl)ccc2c1=O)c1ccc(N2CCC(CCO)CC2)nc1 [Example I-63, 4-(2-Hydroxy-ethyl)-3,4,5,6-tetrahydro-2H-[1,2′]bipyridinyl-5′-carboxylic acid (7-chloro-4-oxo-1-phenyl-1,4-dihydro-quinolin-3-ylmethyl)-amide] | 3800 | 17
O=C(NCc1cn(-c2ccccc2)c2cc(Cl)ccc2c1=O)c1ccc(N(CCO)CCO)nc1 [Example I-64, 6-[Bis-(2-hydroxy-ethyl)-amino]-N-(7-chloro-4-oxo-1-phenyl-1,4-dihydro-quinolin-3-ylmethyl)-nicotinamide] | 100000 | 18
O=C(NCc1cn(-c2ccccc2)c2cc(Cl)ccc2c1=O)c1ccc(N2CCCCC2)nc1 [Example I-65, 3,4,5,6-Tetrahydro-2H-[1,2′]bipyridinyl-5′-carboxylic acid (7-chloro-4-oxo-1-phenyl-1,4-dihydro-quinolin-3-ylmethyl)-amide] | 40000 | 19
CN(CCO)c1ccc(C(=O)NCc2cn(-c3ccccc3)c3cc(Cl)ccc3c2=O)cn1 [Example I-66, N-(7-Chloro-4-oxo-1-phenyl-1,4-dihydro-quinolin-3-ylmethyl)-6-[(2-hydroxy-ethyl)-methyl-amino]-nicotinamide] | 29000 | 19
O=C(NCc1cn(-c2ccccc2)c2cc(Cl)ccc2c1=O)c1ccc(N2CCC(CO)CC2)nc1 [Example I-67, 4-Hydroxymethyl-3,4,5,6-tetrahydro-2H-[1,2′]bipyridinyl-5′-carboxylic acid (7-chloro-4-oxo-1-phenyl-1,4-dihydro-quinolin-3-ylmethyl)-amide] | 6300 | 20
O=C(NCc1cn(-c2ccccc2)c2cc(Cl)ccc2c1=O)c1ccc(N2CCCCCC2)nc1 [Example I-68, 6-Azepan-1-yl-N-(7-chloro-4-oxo-1-phenyl-1,4-dihydro-quinolin-3-ylmethyl)-nicotinamide] | 17000 | 21
